Measured values reported in patent publication US20120121679A1, “VIRICIDAL AND MICROBICIDAL COMPOSITIONS AND USES THEREOF” (University of Georgia Research Foundation, Inc., priority 2009, published 2012).

Columns and labels:
S. typhimurium = experiment: Produce wash in a 4-L tank: S. typhimurium counts on apples, celery, onions, cantaloupes
yeasts and molds = experiment: Produce wash in a 4-L tank: yeast and mold counts; conditions: time not given
aerobic plate count = experiment: Produce wash in a 4-L tank: aerobic plate counts (APC); conditions: time not given
MNV-1 = conditions: 1,000 ppm, cited from earlier work

| Compound | average reduction of S. typhimurium on cantaloupes (S. typhimurium; 2 min (Example 42)) [log CFU per cantaloupe] | reduction of S. typhimurium on onions (S. typhimurium; time not given) [log CFU/onion] | average S. typhimurium count on cantaloupes (S. typhimurium; treatment time 2 min (Example 42)) [log CFU per cantaloupe] | reduction of yeast and mold counts on onions (yeasts and molds) [log CFU/onion] | reduction of APC on onions (aerobic plate count) [log CFU/onion] | reduction in MNV-1 infectivity (MNV-1; food residuals present on the surfaces) | reduction of viable MNV-1 (MNV-1; viruses dried on stainless steel surfaces without food residuals) |
| --- | --- | --- | --- | --- | --- | --- | --- |
| acidified sodium chlorite [50 ppm acidified sodium chlorite] | 0.19 | < 0.5 | 3.43 | < 0.5 | < 0.5 |  |  |
| OCl [sodium hypochlorite solution, sodium hypochlorite] |  |  |  |  |  | minimal reductions in MNV-1 infectivity | > 4 log Most Probable Number (MPN)/ml |
